# Tests used:
# [1] = target: T1, GFP-tagged UBE2C (pcDNA3.1-eGFP-UBE2C) (Homo sapiens, UniProt O00762); assay: CETSA, heated at […] °C for […] min; format: cell-based; conditions: cells treated with Halorotetin B 24 h before purification
# T1 sequence (O00762 2-179): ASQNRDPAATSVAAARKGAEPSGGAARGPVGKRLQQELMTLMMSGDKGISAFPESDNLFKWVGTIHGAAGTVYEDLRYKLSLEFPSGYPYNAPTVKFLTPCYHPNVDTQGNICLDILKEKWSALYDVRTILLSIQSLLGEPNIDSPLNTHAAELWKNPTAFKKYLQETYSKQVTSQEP
# [2] = target: T2, recombinant human UBE2C (Homo sapiens, UniProt O00762); assay: ubiquitylation kit, ubiquitin chain / E2-Ub formation, Western blot; format: biochemical; conditions: 37 °C, 4 h; source of E2 not told
# T2 sequence (O00762 2-179): T1 sequence (O00762 2-179)
# [3] = target: T2, recombinant human UBE2C; assay: surface plasmon resonance, […] Langmuir fit; format: binding
# [4] = target: T3, UBE2C (endogenous, HCC cells) (Homo sapiens, UniProt O00762); assay: cellular thermal shift assay, Western blot; format: cell-based; conditions: 20 µM, 24 h
# T3 construct: endogenous protein in hepatocellular carcinoma cells, detected by Western blot (anti-UBE2C EPR-23165-31)
# T3 sequence (O00762 2-179): T1 sequence (O00762 2-179)
smiles,measurement,setting,value
CC(=O)/C=C/C=C(/C)C#CC1=C(C)C[C@@H](O)CC1(C)C [Halorotetin B],"CETSA, heated at 77 °C for 10 min",[1],The thermal stabilization of wide type UBE2C and Ser51‐mutant UBE2C
same,"ubiquitylation kit, ubiquitin chain / E2-Ub formation, Western blot",[2],Halorotetin B significantly suppressed the enzymatic activity of UBE2C protein
same,Kd,[3],6.71 µM
same,"cellular thermal shift assay, Western blot",[4],UBE2C exhibited significant thermal stabilization upon Halorotetin B treatment

# Source: publication PMC12948284, “Halorotetin B, A Novel Terpenoid Compound Derived from Marine Ascidian, Suppresses Tumor Growth by Targeting the Cell Cycle Regulator UBE2C” (Advanced Science, 2025)
